Patent EP0095262A1, “Azabicycloalkane derivatives, their preparation and medicaments containing them” (BEECHAM GROUP PLC, priority 1982, dated 1983)

The compounds below were run on post-synaptic Dopamine (D.A.) receptors (assay: Inhibition of apomorphine induced climbing in the mouse). Conditions: p.o., ½ hr post dosing; dose for 50% inhibition of climbing induced by apomorphine 1 mg/kg s.c.; male CD1 mice; 30 min.
Assay type: in vivo
Procedure: The results in the following table are an illustration of the anti-psychotic activity of the present compounds as shown by Inhibition of Apormorphine Induced Climbing in the Mouse, a standard test.
The test is based on that described by Protais, P., Constantin, J. and Schwartz J.C. (1976), Psychopharmacology, 50, 1-6.
When mice are given a dose of 1 mg/kg apomorphine and then placed in an enclosed environment, such as an inverted wire cage, they are seen to climb around the walls. This behavioural phenomenon is thought to be a consequence of the stimulation of post-synaptic Dopamine (D.A.) receptors in the nucleus accumbens. Inhibition of apomorphine induced climbing is therefore indicative of post-synaptic D.A. receptor blockade in the accumbens.
Groups of lO male CD1 mice, weighing 25-30 g were pre-treated orally with either graded doses of the test compound or vehicle, at appropriate time intervals before the subcutaneous administration of a sub-maximal dose of apomorphine (1 mg/kg). Immediately after the apomorphine injection the mice were placed in wire 'climbing cages' and each animal was scored for climbing behavour at 10 and 20 minutes post apomorphine as follows:-
The total score was calculated for each group of mice and expressed as a percentage inhibition of climbing. [formula]
ED50's and fiducial limits were calculated according to the method of Litchfield and Wilcoxon, the ED50 being the dose that produced a 50% inhibition of apomorphine - induced climbing.
“4-Amino-5 -Chloro-2-Methoxy-N-[7'-Methyl-9'-(4-Methylbenzyl)-9'-aza-bicyclo[3.3.1]-non-3-P-yl]benzamide [Example 5]” was tested, and the ED50 was 0.6 p.o. ½ hr mg/kg.
In the case of COc1cc(N)c(Cl)cc1C(=O)NC1CC2CC(C)C(C1)N2Cc1ccc(C)cc1 (stereo not drawn) [Example 1, 4-Amiho-5-chloro-2-rnethoxyy-N-[6'-exo-methyl-8'-(4-methylbenzyl)-8'-azabicycloro[3.2.1]-oct-3-β-yl]-benzamide], the ED50 is reported as 0.19 p.o. ½ hr mg/kg.
“4-Amino-5-Chloro-2-Methoxy-N-[6'-endomethyl-9'-(4 methyl- benzyiyl)-9'-aza-bicyclo[3.3,1]-non-3-β- 1]benzamide [Example 6]” gave an ED50 of 1.1 p.o. ½ hr mg/kg.
With “4-Amino-5-Chloro-2-Methoxy-N-[6'-exo-methl-9'-(4-methylbenzyl)-9'-aza-bicyclo[3.3.1]-non-3-β-yl]benzamide [Example 7]” the ED50 was 2.75 p.o. ½ hr mg/kg.
In the case of “2,3-Dimethoxy-N-[7'-exo-Methyl-9'-(4-methylbenzyl)-9'-aza- bicycclo-[3.3.1]-non-3-β-yl]benzamide [Example 8]”, the ED50 is reported as 0.48 p.o. ½ hr mg/kg.
Compound “2-[7'-exo-Methyl-9'-(4-methyl benzyl)-9'-aza-bicyclo[3.3.1] -non-3-β-yl]-phthalimidine [Example 9]” has an ED50 of 2.65 p.o. ½ hr mg/kg.

Same assay, conditions: s.c., 4 hrs post dosing; dose for 50% inhibition of climbing induced by apomorphine 1 mg/kg s.c.; male CD1 mice
Compound “4-Amino-5-chloro-2-methoxy-N-[6'-exo-hydroxy-8'-benzyl-8'-azabicyclol[3.2.1]-oct-3'-β-yl]-benzamide [Example 4]” has an ED50 of 0.47 s.c. 4 hrs mg/kg.
